One experiment has as its system MV4;11 cells. The experiment in a line: Cell viability assay (CellTiter-Glo) in MV4;11 cells, alone or with gilteritinib. In kind it is cell-based. The note with it: MV4;11 cells, CellTiter-Glo, read-out: MV4.
The test system of a further experiment is MOLM-13 cells. The experiment in a line: Cell viability assay (CellTiter-Glo) in MOLM-13 cells, alone or with gilteritinib. In kind it is cell-based. The settings on record: MOLM-13 cells, CellTiter-Glo.
[1] abbreviates: Homo sapiens, MV4-11, 72 h, compound alone (without gilteritinib), three days, 11 IC50.
Setting [2] is: Homo sapiens, MV4-11, 72 h, with gilteritinib 10 nM, three days, 11 IC50 gilteritinib.
[3] abbreviates: Homo sapiens, MOLM-13, 72 h, compound alone (without gilteritinib), three days, read-out: MOLM-13 IC50.
The mark [4] stands for this setting: Homo sapiens, MOLM-13, 72 h, with gilteritinib 20 nM, three days, read-out: MOLM-13 IC50 gilteritinib.
Where [5] appears, read: Homo sapiens, MV4-11, 72 h, compound with gilteritinib 10 nM, three days, 11 IC50 gilteritinib.
The mark [6] stands for this setting: Homo sapiens, MOLM-13, 72 h, compound with gilteritinib 20 nM, three days, read-out: MOLM-13 IC50 gilteritinib.

Each structure is given as a SMILES string. Read-outs that look alike come from different tables or passages of the source.

`O=C(CC12CC(N3CCC(n4cc(-c5cnc6ccccc6n5)cn4)CC3)(C1)C2)NCc1ccc2c(c1)CN(C1CCC(=O)NC1=O)C2=O` (stereo not drawn) [GS-130, N-((2-(2,6-dioxopiperidin-3-yl)-1-oxoisoindolin-5-yl)methyl)-2-(3-(4-(4-(quinoxalin-2-yl)-1H-pyrazol-1-yl)piperidin-1-yl)bicyclo[1.1.1]pentan-1-yl)acetamide]: the IC50 with MV4;11 cells (setting [1]), in the experiment with MV4;11 cells (setting [2]), with MOLM-13 cells (setting [3]) and with MOLM-13 cells (setting [4]) was more than 1000 nM throughout.

For `O=C1CCC(N2C(=O)c3ccc(NC[C@H]4C[C@H](n5cc(N6CCCCC6)c(C6CC6)n5)C4)cc3C2=O)C(=O)N1` (stereo partly drawn) [GS-448, 5-(((trans-3-(3-cyclopropyl-4-(piperidin-1-yl)-1H-pyrazol-1-yl)cyclobutyl)methyl)amino)-2-(2,6-dioxopiperidin-3-yl)isoindoline-1,3-dione], the IC50 is 100 to 1000 nM with MV4;11 cells (setting [1]), 10 to 100 nM in the experiment with MV4;11 cells (setting [5]), more than 1000 nM with MOLM-13 cells (setting [3]) and 100 to 1000 nM in the experiment on MOLM-13 cells (setting [6]).

For the molecule `O=C1CCC(N2Cc3c(Nc4ccnc(Nc5cccc(N6CCC(n7cc(-c8cnc9ccccc9n8)cn7)CC6)c5)n4)cccc3C2=O)C(=O)N1` (stereo not drawn) [GS-025, 3-(1-Oxo-4-((2-((3-(4-(4-(quinoxalin-2-yl)-1H-pyrazol-1-yl)piperidin-1-yl)phenyl)amino)pyrimidin-4-yl)amino)isoindolin-2-yl)piperidine-2,6-dione], the IC50 with MV4;11 cells (setting [1]) is 10 to 100 nM; with MV4;11 cells (setting [2]) it was less than 10 nM; in the experiment with MOLM-13 cells (setting [3]), less than 10 nM; in the experiment on MOLM-13 cells (setting [4]), less than 10 nM.

Take `CN(C)c1cccc(-c2cnn([C@H]3C[C@H](CCCNc4ccc5c(c4)C(=O)N(C4CCC(=O)NC4=O)C5=O)C3)c2)n1` (stereo partly drawn) [GS-248, 5-((3-(trans-3-(4-(6-(Dimethylamino)pyridin-2-yl)-1H-pyrazol-1-yl)cyclobutyl)propyl)amino)-2-(2,6-dioxopiperidin-3-yl)isoindoline-1,3-dione]: the IC50 in the experiment on MV4;11 cells (setting [1]) is 10 to 100 nM; with MV4;11 cells (setting [2]), 10 to 100 nM; in the experiment with MOLM-13 cells (setting [3]) it was more than 1000 nM; in the experiment on MOLM-13 cells (setting [4]) it was 10 to 100 nM.

For the molecule `O=C1CCC(N2C(=O)c3ccc(NCCCCCCn4cc(-c5cnc6ccc(C7=CCNCC7)cc6n5)cn4)cc3C2=O)C(=O)N1` (stereo not drawn) [GS-531, 2-(2,6-Dioxopiperidin-3-yl)-5-((6-(4-(7-(1,2,3,6-tetrahydropyridin-4-yl)quinoxalin-2-yl)-1H-pyrazol-1-yl)hexyl)amino)isoindoline-1,3-dione], the IC50 in the experiment on MV4;11 cells (setting [1]) was 10 to 100 nM; in the experiment with MV4;11 cells (setting [5]) it was less than 10 nM; in the experiment with MOLM-13 cells (setting [3]), 10 to 100 nM; in the experiment with MOLM-13 cells (setting [6]), less than 10 nM.

On to `O=C1CCC(N2C(=O)c3ccc(NC[C@H]4C[C@H](n5cc(N6CCOCC6)c(C6CC6)n5)C4)cc3C2=O)C(=O)N1` (stereo partly drawn) [GS-438, 5-(((trans-3-(3-cyclopropyl-4-morpholino-1H-pyrazol-1-yl)cyclobutyl)methyl)amino)-2-(2,6-dioxopiperidin-3-yl)isoindoline-1,3-dione], for which the IC50 is more than 1000 nM in the experiment on MV4;11 cells (setting [1]), more than 1000 nM in the experiment with MV4;11 cells (setting [5]), more than 1000 nM with MOLM-13 cells (setting [3]) and 100 to 1000 nM in the experiment on MOLM-13 cells (setting [6]).

Consider `O=C1CCC(N2C(=O)c3ccc(NC[C@H]4C[C@H](n5cc(-c6cc7nccnc7cn6)c(C6CC6)n5)C4)cc3C2=O)C(=O)N1` (stereo partly drawn) [GS-285, 5-(((trans-3-(3-Cyclopropyl-4-(pyrido[3,4-b]pyrazin-7-yl)-1H-pyrazol-1-yl)cyclobutyl)methyl)amino)-2-(2,6-dioxopiperidin-3-yl)isoindoline-1,3-dione], for which the IC50 was 10 to 100 nM in the experiment on MV4;11 cells (setting [1]), less than 10 nM with MV4;11 cells (setting [2]), 100 to 1000 nM in the experiment with MOLM-13 cells (setting [3]) and 10 to 100 nM in the experiment with MOLM-13 cells (setting [4]).

On to `O=C1CCC(N2C(=O)c3ccc(NC[C@H]4C[C@H](n5cc(-c6cccc(=O)[nH]6)c(C6CC6)n5)C4)cc3C2=O)C(=O)N1` (stereo partly drawn) [GS-270, 5-(((trans-3-(3-Cyclopropyl-4-(6-oxo-1,6-dihydropyridin-2-yl)-1H-pyrazol-1-yl)cyclobutyl)methyl)amino)-2-(2,6-dioxopiperidin-3-yl)isoindoline-1,3-dione], for which the IC50 in the experiment with MV4;11 cells (setting [1]), in the experiment on MV4;11 cells (setting [2]), with MOLM-13 cells (setting [3]) and with MOLM-13 cells (setting [4]) was more than 1000 nM throughout.

Take `O=C1CCC(N2C(=O)c3ccc(NCCCC4CC(n5cc(-c6cnc7ccccc7n6)cn5)C4)cc3C2=O)C(=O)N1` (stereo not drawn) [GS-107, 2-(2,6-Dioxopiperidin-3-yl)-5-((3-(3-(4-(quinoxalin-2-yl)-1H-pyrazol-1-yl)cyclobutyl)propyl)amino)isoindoline-1,3-dione]: the IC50 in the experiment on MV4;11 cells (setting [1]) is 100 to 1000 nM; in the experiment on MV4;11 cells (setting [2]) it was 10 to 100 nM; in the experiment on MOLM-13 cells (setting [3]), more than 1000 nM; with MOLM-13 cells (setting [4]), 10 to 100 nM.

For `N#Cc1ccc2ncc(-c3cnn([C@H]4C[C@H](CCCNc5ccc6c(c5)C(=O)N(C5CCC(=O)NC5=O)C6=O)C4)c3)nc2c1` (stereo partly drawn) [GS-198, 3-(1-(trans-3-(3-((2-(2,6-Dioxopiperidin-3-yl)-1,3-dioxoisoindolin-5-yl)amino)propyl)cyclobutyl)-1H-pyrazol-4-yl)quinoxaline-6-carbonitrile], the IC50 was 10 to 100 nM in the experiment with MV4;11 cells (setting [1]), 10 to 100 nM in the experiment on MV4;11 cells (setting [2]), 100 to 1000 nM in the experiment with MOLM-13 cells (setting [3]) and less than 10 nM with MOLM-13 cells (setting [4]).

Take `O=C1CCC(N2C(=O)c3ccc(NCCC[C@H]4C[C@H](n5cc(-c6cnc7ccc(NC8COC8)cc7n6)cn5)C4)cc3C2=O)C(=O)N1` (stereo partly drawn) [GS-585, 2-(2,6-Dioxopiperidin-3-yl)-5-((3-(trans-3-(4-(7-(oxetan-3-ylamino)quinoxalin-2-yl)-1H-pyrazol-1-yl)cyclobutyl)propyl)amino)isoindoline-1,3-dione]: the IC50 is 10 to 100 nM in the experiment with MV4;11 cells (setting [1]), less than 10 nM with MV4;11 cells (setting [5]), 10 to 100 nM in the experiment with MOLM-13 cells (setting [3]) and less than 10 nM in the experiment with MOLM-13 cells (setting [6]).

Consider `O=C1CCC(N2C(=O)c3ccc(NC[C@H]4C[C@H](n5ccc(C6CC6)n5)C4)cc3C2=O)C(=O)N1` (stereo partly drawn) [GS-588, 5-(((trans-3-(3-Cyclopropyl-1H-pyrazol-1-yl)cyclobutyl)methyl)amino)-2-(2,6-dioxopiperidin-3-yl)isoindoline-1,3-dione], for which the IC50 in the experiment on MV4;11 cells (setting [1]) is more than 1000 nM; in the experiment with MV4;11 cells (setting [5]) it was more than 1000 nM; with MOLM-13 cells (setting [3]), 10 to 100 nM; in the experiment with MOLM-13 cells (setting [6]), 100 to 1000 nM.

Take `O=C1CCC(N2C(=O)c3ccc(NCCC[C@H]4C[C@H](n5cc(-c6cnc7ccc(OC8CCNCC8)cc7n6)c(C6CC6)n5)C4)cc3C2=O)C(=O)N1` (stereo partly drawn) [GS-229, 5-((3-(trans-3-(3-Cyclopropyl-4-(7-(piperidin-4-yloxy)quinoxalin-2-yl)-1H-pyrazol-1-yl)cyclobutyl)propyl)amino)-2-(2,6-dioxopiperidin-3-yl)isoindoline-1,3-dione]: the IC50 in the experiment on MV4;11 cells (setting [1]) is 10 to 100 nM; with MV4;11 cells (setting [2]) it was less than 10 nM; in the experiment with MOLM-13 cells (setting [3]), 10 to 100 nM; in the experiment with MOLM-13 cells (setting [4]), less than 10 nM.

Consider `O=C1CCC(N2Cc3cc(NCCCCC(=O)N4CCC(n5cc(-c6cnc7ccccc7n6)cn5)CC4)ccc3C2=O)C(=O)N1` (stereo not drawn) [GS-515, 3-(1-Oxo-5-((5-oxo-5-(4-(4-(quinoxalin-2-yl)-1H-pyrazol-1-yl)piperidin-1-yl)pentyl)amino)isoindolin-2-yl)piperidine-2,6-dione], for which the IC50 is more than 1000 nM in the experiment on MV4;11 cells (setting [1]), 10 to 100 nM with MV4;11 cells (setting [5]), more than 1000 nM in the experiment with MOLM-13 cells (setting [3]) and 100 to 1000 nM with MOLM-13 cells (setting [6]).

For the molecule `Cc1nn([C@H]2C[C@@H](CCCNc3ccc4c(c3)C(=O)N(C3CCC(=O)NC3=O)C4=O)C2)cc1-c1cnc2ccccc2n1` (stereo partly drawn) [GS-168, 2-(2,6-Dioxopiperidin-3-yl)-5-((3-(cis-3-(3-methyl-4-(quinoxalin-2-yl)-1H-pyrazol-1-yl)cyclobutyl)propyl)amino)isoindoline-1,3-dione], the IC50 was 100 to 1000 nM in the experiment with MV4;11 cells (setting [1]), 10 to 100 nM in the experiment on MV4;11 cells (setting [2]), more than 1000 nM in the experiment with MOLM-13 cells (setting [3]) and 10 to 100 nM in the experiment on MOLM-13 cells (setting [4]).

Take `O=C1CCC(N2Cc3cc(CNC(=O)C(F)(F)c4ccc(Cl)cc4)ccc3C2=O)C(=O)N1` (stereo not drawn) [CC-90009, reference compound]: the IC50 in the experiment with MV4;11 cells (with 10 nM gilteritinib, 3 days, 11 IC50 gilteritinib) came to 7.1 nM; with MV4;11 cells (without gilteritinib, 3 days, 11 IC50), 54 nM; in the experiment on MOLM-13 cells (with 20 nM gilteritinib, 3 days, read-out: MOLM-13 IC50 gilteritinib), 8.6 nM; in the experiment with MOLM-13 cells (without gilteritinib, 3 days, read-out: MOLM-13 IC50), 103 nM.

As to `O=C1CCC(N2C(=O)c3ccc(NCCCCCCn4ccc(-c5cnc6ccccc6n5)n4)cc3C2=O)C(=O)N1` (stereo not drawn) [GS-536, 2-(2,6-Dioxopiperidin-3-yl)-5-((6-(3-(quinoxalin-2-yl)-1H-pyrazol-1-yl)hexyl)amino)isoindoline-1,3-dione], the IC50 in the experiment with MV4;11 cells (setting [1]) was more than 1000 nM; with MV4;11 cells (setting [5]), 100 to 1000 nM; in the experiment with MOLM-13 cells (setting [3]) it was more than 1000 nM; with MOLM-13 cells (setting [6]), 10 to 100 nM.

With `O=C1CCC(N2C(=O)c3ccc(NC[C@H]4C[C@H](n5cc(-c6cccc(NC7COC7)n6)c(C6CC6)n5)C4)cc3C2=O)C(=O)N1` (stereo partly drawn) [GS-260, 5-(((trans-3-(3-Cyclopropyl-4-(6-(oxetan-3-ylamino)pyridin-2-yl)-1H-pyrazol-1-yl)cyclobutyl)methyl)amino)-2-(2,6-dioxopiperidin-3-yl)isoindoline-1,3-dione], the IC50 was more than 1000 nM in the experiment with MV4;11 cells (setting [1]), more than 1000 nM with MV4;11 cells (setting [2]), 100 to 1000 nM with MOLM-13 cells (setting [3]) and more than 1000 nM in the experiment with MOLM-13 cells (setting [4]).
